Values of other authors, collected in patent publication US20160303050A1, “FORMULATIONS CONTAINING DIACEREIN AND METHODS OF LOWERING BLOOD LEVELS OF URIC ACID USING THE SAME” (TWi Biotechnology, Inc., priority 2015, published 2016).

Details: single oral administration of 50 mg, healthy volunteers

fasting Tmax (fasting): 2.4 h
Tmax with a meal (with a meal): 5.2 h
SMILES: CC(=O)Oc1cccc2c1C(=O)c1c(OC(C)=O)cc(C(=O)O)cc1C2=O [diacerein, 4,5-bis (acetyloxy) 9,10-dihydro-4,5-dihydroxy-9,10-dioxo-2-anthracenecarboxylic acid]
